Laboratory results from PMC6277767, “Broad and Region-Specific Impacts of the Synthetic Cannabinoid CP 55,940 in Adolescent and Adult Female Mouse Brains” (Frontiers in Molecular Neuroscience, 2018).

Tested on: CD1 female mouse brain lipidome
Test: Brain-region lipid levels (HPLC/MS/MS lipidomics) 2 h after single i.p. 3 mg/kg CP 55,940 vs vehicle
Format: in vivo
Set-up: N-arachidonoyl phenylalanine level, Mean / N-stearoyl tryptophan level, Mean / N-stearoyl proline level, Mean / N-stearoyl leucine level, Mean / N-stearoyl phenylalanine level, Mean / N-stearoyl serine level, Mean / N-stearoyl methionine level, Mean: unit: moles per gram
Conditions: cortex
Experimental: The Bloomington Institutional Animal Care and Use Committee of Indiana University reviewed and approved the animal procedures. Female mice from the CD1 strain were utilized to match our study examining THC’s effects on the brain lipidome ([Leishman et al., 2018]). Mice were given a single i.p. injection of either 3 mg/kg CP or 1:1:18 cremophor:ethanol:saline vehicle (please refer to the section “3 mg/kg CP Is Relevant for Synthetic Cannabinoid Abuse and Has Stronger Effects on the Female Mouse Brain Lipidome During Adolescence” for a justification of dose and use of female mice). Three different age groups were given injections: PND 35 and PND 50 adolescents, and adult mice (PND 113). At least eight mice in each age group received CP and at least eight received vehicle. Matching the THC study time course ([Leishman et al., 2018]), mice were sacrificed via rapid decapitation 2 h after injection. Brains were immediately removed and flash-frozen in liquid nitrogen, and then stored at -80°C until dissections were performed. Brains were dissected on an ice-cold dissection plate into the following regions: STR, HIPP, CER, THAL, CTX, HYP, MID, and STEM. These abbreviations for these brain areas will be used exclusively when discussing the results generated by these specific dissections. Each dissected area was immediately placed in liquid nitrogen and then stored at -80°C until used for lipid extraction.
Tissue extracts were performed as previously described ([Bradshaw et al., 2006]; [Stuart et al., 2013]; [Raboune et al., 2014]; [Leishman et al., 2016a],[b], [2017], [2018]). First, samples were shock frozen in liquid nitrogen, weighed, and transferred to a centrifuge tube. The mass of the largest sample was multiplied by 50 to determine how many milliliters of HPLC-grade methanol (Fisher, Fair Lawn, NJ, United States) to add. Then, samples were spiked with 500 pmol deuterium-labeled NAGly (d8NAGly; Cayman Chemical, Ann Arbor, MI, United States). Samples were placed on ice in darkness for 2 h then individually homogenized and centrifuged at 19,000 × g for 20 min at 20°C. Supernatants were diluted with HPLC water (purified in house) to make a solution of 75% water, 25% supernatant. Lipids were partially purified on C18 solid phase extraction columns (Agilent, Palo Alto, CA, United States). A series of four elutions with 1.5 mL of 60%, 75%, 85%, and 100% methanol were collected ([Stuart et al., 2013]; [Leishman et al., 2016a],[b], [2018]).
As previously described ([Bradshaw et al., 2006]; [Tan et al., 2006]; [Smoum et al., 2010]; [Stuart et al., 2013]; [Tortoriello et al., 2013]; [Raboune et al., 2014]; [Leishman et al., 2016a],[b], [2017], [2018]), samples were analyzed using an Applied Biosystems API 3000 triple quadrupole mass spectrometer with electrospray ionization (Foster City, CA, United States). Using an Agilent XDB-C18 reversed phase analytical column and optimized mobile phase gradients, 20 μL from each elution were chromatographed. Two Shimadzu 10ADvp pumps (Columbia, MD, United States) provided the pressure for gradient elution. Mobile phase A: 20% methanol, 80% water (v/v) and 1 mM ammonium acetate (Sigma, St. Louis, MO, United States). Mobile phase B: 100% methanol, 1 mM ammonium acetate. Every method run began with 0% mobile phase B, reached 100% mobile phase B flowing at 0.2 mL/min, and gradually returned to 0% mobile phase B.
This screening library will be referred to as the lipidome when discussing data from this study. HPLC/MS/MS data were analyzed using Analyst software (Applied Biosystems) ([Bradshaw et al., 2006]; [Tan et al., 2006]; [Stuart et al., 2013]; [Tortoriello et al., 2013]; [Raboune et al., 2014]; [Leishman et al., 2016a],[b], [2017], [2018]). Chromatograms (Supplementary Figure 3) were generated by determining the retention time of analytes from the analytical column with a [M-1] or [M+1] parent peak and a fragmentation peak corresponding to the programmed values. […]

[1] = PND 50 female mice, 3mg/kg CP 55,940
[2] = WT adult female mice, 3mg/kg CP 55,940

`CCCCCCC(C)(C)c1ccc([C@@H]2C[C@H](O)CC[C@H]2CCCO)c(O)c1` [CP 55,940] was tested, and the “N-palmitoyl leucine level, Mean” value [1] was 1.98E-12, the “N-palmitoyl methionine level, Mean” value [1] was 1.01E-12 and the “N-palmitoyl phenylalanine level, Mean” value [1] was 1.98E-12. For the same compound, the “N-palmitoyl proline level, Mean” value [1] was “BDL”, the “N-palmitoyl serine level, Mean” value [1] was 4.17E-11 and the “N-palmitoyl tryptophan level, Mean” value [1] was “BDL”. For the same compound, the “N-palmitoyl tyrosine level, Mean” value [1] was 6.65E-13, the “N-palmitoyl valine level, Mean” value [1] was 3.13E-13 and the “N-stearoyl GABA level, Mean” value [1] was 1.55E-11. For the same compound, the “N-stearoyl alanine level, Mean” value [1] was 3.67E-12, the “N-stearoyl ethanolamine level, Mean” value [1] was 2.8E-12 and the “N-stearoyl glycine level, Mean” value [1] was 1.45E-12. The “N-stearoyl leucine level, Mean” value [1] was 2.21E-12, the “N-stearoyl methionine level, Mean” value [1] was 1.13E-12 and the “N-stearoyl phenylalanine level, Mean” value [1] was 2.99E-12. The “N-stearoyl proline level, Mean” value [1] was “BDL”, the “N-stearoyl serine level, Mean” value [1] was 3.75E-11 and the “N-stearoyl tryptophan level, Mean” value [1] was “BDL”. For the same compound, the “N-stearoyl tyrosine level, Mean” value [1] was 2.52E-13, the “Oleic acid level, Mean” value [1] was 1.6E-09 and the “PGE2 level, Mean” value [1] was 1.58E-10. The “PhosphoLEA level, Mean” value [1] was 3.22E-12, the “THC level, Mean” value [1] was “BDL” and the “N-arachidonoyl GABA level, Mean” value [2] was 1.28E-11. For the same compound, the “N-arachidonoyl alanine level, Mean” value [2] was 1.09E-12, the “N-arachidonoyl ethanolamine level, Mean” value [2] was 2.77E-11 and the “N-arachidonoyl glycine level, Mean” value [2] was 1.07E-12. For the same compound, the “N-arachidonoyl phenylalanine level, Mean” value [2] was 5.77E-14, the “N-docosahexaenoyl GABA level, Mean” value [2] was 6.57E-12 and the “N-docosahexaenoyl ethanolamine level, Mean” value [2] was 2.54E-11. The “N-docosahexaenoyl glycine level, Mean” value [2] was 8.32E-14, the “N-docosahexaenoyl leucine level, Mean” value [2] was 8.03E-13 and the “N-docosahexaenoyl phenylalanine level, Mean” value [2] was 3E-14. For the same compound, the “N-linoleoyl GABA level, Mean” value [2] was 4.08E-12, the “N-linoleoyl ethanolamine level, Mean” value [2] was 2.93E-11 and the “N-linoleoyl glycine level, Mean” value [2] was 5.03E-14. For the same compound, the “N-linoleoyl leucine level, Mean” value [2] was 9.31E-14, the “N-oleoyl GABA level, Mean” value [2] was 9.86E-12 and the “N-oleoyl alanine level, Mean” value [2] was 2.22E-12. The “N-oleoyl ethanolamine level, Mean” value [2] was 1.38E-10, the “N-oleoyl glycine level, Mean” value [2] was 2.9E-13 and the “N-oleoyl leucine level, Mean” value [2] was 7.57E-13. The “N-oleoyl phenylalanine level, Mean” value [2] was 3.2E-13, the “N-palmitoyl GABA level, Mean” value [2] was 1.4E-11 and the “N-palmitoyl alanine level, Mean” value [2] was 2.07E-12. The “N-palmitoyl ethanolamine level, Mean” value [2] was 3.62E-11, the “N-palmitoyl glycine level, Mean” value [2] was 9.43E-13 and the “N-palmitoyl leucine level, Mean” value [2] was 1.16E-12. The “N-palmitoyl methionine level, Mean” value [2] was 2.58E-12, the “N-palmitoyl phenylalanine level, Mean” value [2] was 2.56E-13 and the “N-stearoyl GABA level, Mean” value [2] was 1.05E-11. For the same compound, the “N-stearoyl alanine level, Mean” value [2] was 3.38E-12, the “N-stearoyl ethanolamine level, Mean” value [2] was 3.18E-11 and the “N-stearoyl glycine level, Mean” value [2] was 1.95E-12. For the same compound, the “N-stearoyl leucine level, Mean” value [2] was 1.32E-12, the “N-stearoyl methionine level, Mean” value [2] was 3.92E-13 and the “N-stearoyl phenylalanine level, Mean” value [2] was 1.71E-13. The “2-palmitoyl glycerol Direction (rel to Veh)” value (PND 35, 3 mg/kg CP 55,940) was “↑”, the “2-palmitoyl glycerol, Magnitude (x Veh level)” value (PND 35, 3 mg/kg CP 55,940) was 1.57 x Veh level and the “6-ketoPGF1α Direction (rel to Veh)” value (PND 35, 3 mg/kg CP 55,940) was “↓”. The “6-ketoPGF1α Magnitude (x Veh level)” value (PND 35, 3 mg/kg CP 55,940) was 0.68 x Veh level, the “N-arachidonoyl GABA Direction (rel to Veh)” value (PND 35, 3 mg/kg CP 55,940) was “↓” and the “N-arachidonoyl GABA Magnitude (x Veh level)” value (PND 35, 3 mg/kg CP 55,940) was 0.83 x Veh level. The “N-arachidonoyl alanine Direction (rel to Veh)” value (PND 35, 3 mg/kg CP 55,940) was “↓”, the “N-arachidonoyl alanine Magnitude (x Veh level)” value (PND 35, 3 mg/kg CP 55,940) was 0.77 x Veh level and the “N-arachidonoyl glycine Direction (rel to Veh)” value (PND 35, 3 mg/kg CP 55,940) was “↓”. For the same compound, the “N-arachidonoyl glycine Magnitude (x Veh level)” value (PND 35, 3 mg/kg CP 55,940) was 0.75 x Veh level, the “N-arachidonoyl methionine Direction (rel to Veh)” value (PND 35, 3 mg/kg CP 55,940) was “↓” and the “N-arachidonoyl methionine, Magnitude (x Veh level)” value (PND 35, 3 mg/kg CP 55,940) was 0.60 x Veh level. For the same compound, the “N-arachidonoyl phenylalanine Direction (rel to Veh)” value (PND 35, 3 mg/kg CP 55,940) was “↓”, the “N-arachidonoyl phenylalanine, Magnitude (x Veh level)” value (PND 35, 3 mg/kg CP 55,940) was 0.76 x Veh level and the “N-arachidonoyl serine Direction (rel to Veh)” value (PND 35, 3 mg/kg CP 55,940) was “↓”. For the same compound, the “N-arachidonoyl serine Magnitude (x Veh level)” value (PND 35, 3 mg/kg CP 55,940) was 0.75 x Veh level, the “N-arachidonoyl taurine Direction (rel to Veh)” value (PND 35, 3 mg/kg CP 55,940) was “↓” and the “N-arachidonoyl taurine Magnitude (x Veh level)” value (PND 35, 3 mg/kg CP 55,940) was 0.83 x Veh level. For the same compound, the “N-arachidonoyl tyrosine Direction (rel to Veh)” value (PND 35, 3 mg/kg CP 55,940) was “↓”, the “N-arachidonoyl tyrosine, Magnitude (x Veh level)” value (PND 35, 3 mg/kg CP 55,940) was 0.73 x Veh level and the “N-docosahexaenoyl GABA Direction (rel to Veh)” value (PND 35, 3 mg/kg CP 55,940) was “↓”. The “N-docosahexaenoyl GABA Magnitude (x Veh level)” value (PND 35, 3 mg/kg CP 55,940) was 0.88 x Veh level, the “N-docosahexaenoyl glycine Direction (rel to Veh)” value (PND 35, 3 mg/kg CP 55,940) was “↓” and the “N-docosahexaenoyl glycine Magnitude (x Veh level)” value (PND 35, 3 mg/kg CP 55,940) was 0.78 x Veh level. The “N-docosahexaenoyl leucine Direction (rel to Veh)” value (PND 35, 3 mg/kg CP 55,940) was “↑”, the “N-docosahexaenoyl leucine Magnitude (x Veh level)” value (PND 35, 3 mg/kg CP 55,940) was 1.52 x Veh level and the “N-docosahexaenoyl serine Direction (rel to Veh)” value (PND 35, 3 mg/kg CP 55,940) was “↓”. For the same compound, the “N-docosahexaenoyl serine Magnitude (x Veh level)” value (PND 35, 3 mg/kg CP 55,940) was 0.62 x Veh level, the “N-docosahexaenoyl valine Direction (rel to Veh)” value (PND 35, 3 mg/kg CP 55,940) was “↑” and the “N-docosahexaenoyl valine Magnitude (x Veh level)” value (PND 35, 3 mg/kg CP 55,940) was 1.37 x Veh level. The “N-linoleoyl GABA Direction (rel to Veh)” value (PND 35, 3 mg/kg CP 55,940) was “↓”, the “N-linoleoyl GABA Magnitude (x Veh level)” value (PND 35, 3 mg/kg CP 55,940) was 0.88 x Veh level and the “N-linoleoyl glycine Direction (rel to Veh)” value (PND 35, 3 mg/kg CP 55,940) was “↓”. For the same compound, the “N-linoleoyl glycine Magnitude (x Veh level)” value (PND 35, 3 mg/kg CP 55,940) was 0.69 x Veh level, the “N-oleoyl GABA Direction (rel to Veh)” value (PND 35, 3 mg/kg CP 55,940) was “↓” and the “N-oleoyl GABA Magnitude (x Veh level)” value (PND 35, 3 mg/kg CP 55,940) was 0.81 x Veh level. The “N-oleoyl alanine Direction (rel to Veh)” value (PND 35, 3 mg/kg CP 55,940) was “↓”, the “N-oleoyl alanine Magnitude (x Veh level)” value (PND 35, 3 mg/kg CP 55,940) was 0.75 x Veh level and the “N-oleoyl glycine Direction (rel to Veh)” value (PND 35, 3 mg/kg CP 55,940) was “↓”. The “N-oleoyl glycine Magnitude (x Veh level)” value (PND 35, 3 mg/kg CP 55,940) was 0.89 x Veh level, the “N-oleoyl leucine Direction (rel to Veh)” value (PND 35, 3 mg/kg CP 55,940) was “↑” and the “N-oleoyl leucine Magnitude (x Veh level)” value (PND 35, 3 mg/kg CP 55,940) was 1.22 x Veh level. The “N-oleoyl methionine Direction (rel to Veh)” value (PND 35, 3 mg/kg CP 55,940) was “↓”, the “N-oleoyl methionine, Magnitude (x Veh level)” value (PND 35, 3 mg/kg CP 55,940) was 0.67 x Veh level and the “N-oleoyl valine Direction (rel to Veh)” value (PND 35, 3 mg/kg CP 55,940) was “↑”.
